Experimental data taken from patent publication US20240218385A1, “NEGATIVE-STRAND RNA VIRAL VECTOR AND PLANT GENOME EDITING METHOD WITHOUT TRANSFORMATION” (ZHEJIANG UNIVERSITY, priority 2021, published 2024).

Experiments:
Assay type in all cases: cell-based
[1] = system: PDS gene crPDS1 target site; assay: Mutation genotypes at the crPDS1 target in regenerated N. benthamiana plants after antiviral treatment (HTS); conditions: for proportion of M0 plants with mutations at the target site: ribavirin 40 mg/L, favipiravir 40 mg/L, remdesivir 1.2 mg/L
From the text: Plant regeneration through culturing the leaf tissues infected with the TSWV vectors are usually ineffective in eliminating the virus. The embodiment investigated the effect of antiviral treatment during plant regeneration on virus clearance using leaf tissues infected with the TSWV-Cas12a-crRNA vector targeting the N. benthamiana crPDS1 site. […] After 35 days of culturing, explants together with induced callus were transferred to an induction medium without antiviral agents until day 55, and then the regenerated seedlings were transferred to a rooting medium. Three independent biological replicates were included in each group, and 30 plants were randomly selected in each biological replicate of each group for subsequent analysis. Total RNA was extracted from M0 regenerated seedlings, and RT-PCR was conducted using the TSWV N specific primers N/F ([…]; SEQ ID NO: 131) and N/R ([…]; SEQ ID NO: 132) to examine the virus clearance rate. The primers Nb/actin/F ([…]; SEQ ID NO: 133) and Nb/actin/R ([…]; SEQ ID NO: 134) for amplification of the NbActin cDNA served as an internal control. […] In contrast, the mock treatment had only 4.4% of virus-free regenerated plants.
To further evaluate the effect of drug treatment on the efficiency of gene editing in the regenerated plants, DNA sequences containing the target loci were PCR amplified using specific primers (SEQ ID NO: 70 and 71), and the resulting amplicons were high-throughput sequenced. The mutation type of each plant was analyzed, and the editing efficiency of each group was calculated. We used the following definitions to call the putative genotype: wild-type (WT) with editing efficiency (indels %) of 0-10.0%; chimeric (Chi) with 10%<indels %≤35.0%; heterozygous (He) with 35.0%<indels %≤80.0%, i.e., one allele is edited at the target site but the other allele is wild-type; homozygous (Ho) with indels % between 80.0% and 100.0% if both alleles have the same type of editing, and biallelic (Bi) if two alleles produced two different types of editing.

TSWV [2] = assay: TSWV clearance from regenerated N. benthamiana plants by antiviral treatment during tissue culture (RT-PCR with N-specific primers); conditions: 40 mg/L in medium; explants infected with TSWV-Cas12a-crRNA targeting crPDS1
TSWV [3] = assay: TSWV clearance from regenerated tobacco plants by antiviral treatment
From the text: (§1) This embodiment further investigates the impact of antiviral drug treatment on virus clearance and mutant plant recovery using tobacco leaf tissues infected with the TSWV vectors for tissue culture and regeneration. We used the recombinant TSWV-Cas12a-crRNA vector described in Example 24 as an example, which targets the crPDS1 target sites of both PDS genes in tobacco. The systemic leaves infected with this virus vector were used as explants for tissue culture and plant regeneration, following the same experimental protocol as described in Example 24.
(§2) The distribution of mutant genotypes in the regenerated plants from each drug treatment group was further analyzed.

[4] = system: PDS genes crPDS1 target sites; assay: Target mutations in regenerated tobacco plants after antiviral treatment (HTS)
From the text: as §1, §2

| Compound | total editing efficiency compared to the mock group ([1]; M0 plants) | proportion of Ho/Bi types compared to the mock group ([1]; M0 plants, PDSa and PDSb) | proportion of M0 plants with mutations at the target site ([1]; PDSa and PDSb) | TSWV clearance rate (regenerated plants free of virus) (TSWV [2]) [%] | plants with tetra-allelic mutations at the crPDS1 target site ([1]; 40 mg/L ribavirin in medium) [%] | proportion of Chi types compared to the mock group ([1]; M0 plants, PDSa and PDSb) | presence of viral vectors in the regenerated plants (TSWV [3]) | proportion of mutation types in regenerated plants [4] | percentage of regenerated plants carrying target mutations ([4]; HTS) |
| --- | --- | --- | --- | --- | --- | --- | --- | --- | --- |
| NC(=O)c1nc(F)c[nH]c1=O [favipiravir] | lower than that of the mock group | significantly higher than that of the mock group | lowest mutation rates | – | – | – | – | – | – |
| NC(=O)c1ncn([C@@H]2O[C@H](CO)[C@@H](O)[C@H]2O)n1 [ribavirin] | – | increased in both homoeologs | highest proportion of plants with mutations | 100 | 28.9 | decreased | effectively cleared the virus from all of the regenerated plants | increased the proportion of various mutation types | significantly higher than that in the control treatment and other drug treatment groups |
